Data reported in patent US9358276B2, “Methods of diagnosing and treating small intestinal bacterial overgrowth (SIBO) and SIBO-related conditions” (Cedars-Sinai Medical Center, priority 1999, dated 2016).

Experiments:
Assay type in all cases: in vivo, human
SIBO [1] = test: Case: depression with SIBO, neomycin; conditions: one patient
From the text: A person presented with bloating, gas, abdominal distention, and cramping for a period of 3 years prior to LBHT. Symptoms of depression first appeared concurrently with the first appearance of bowel symptoms, and were serious enough that psychiatric hospitalization had been considered by their attending psychiatrist. The subject reported feeling very depressed and was convinced that life was not worth living. The subject=s LBHT indicated the presence of a SIBO condition. […] The subject had been prescribed eight different anti-depressant medications, all of which were discontinued as a result of their improvement.

SIBO [2] = test: Neomycin treatment of chronic fatigue syndrome subjects with SIBO
Procedure: Thirty of 202 subjects in the database ([…]) had received a diagnosis of chronic fatigue syndrome. Of these 30 subjects, 21 (70%) had SIBO as indicated by LBHT, but four out of the nine without SIBO had recently taken antibiotics. Therefore, the prevalence of SIBO was 21 out of 26 (81%) subjects with a diagnosis of CFS. After treatment with neomycin (500 mg twice daily, 10-day course), nine of the 21 subjects diagnosed with CFS, returned for follow-up LBHT and questionnaire. […] (Table 2).

SIBO [3] = test: Case: multiple sclerosis with SIBO, neomycin; conditions: one patient
From the text: A suspected diagnosis of multiple sclerosis had been made by a neurologist was based on various neuropathies of the peripheral nervous system, including numbness, tingling, and weakness in the lower extremities, but this subject also had associated bloating, gas, distension and alteration in bowel habits. The subject also complained of a significant fatigue and nausea. The subject underwent LBHT, which detected SIBO. […] They no longer had numbness or tingling in the hands or feet and was functioning quite well.

neomycin
depression (SIBO [1]): completely resolved | eradication of SIBO (LBHT) (SIBO [2]; all nine CFS subjects): at least partially eradication of SIBO | VAS score Fatigue, After Antibiotic (SIBO [2]; nine CFS patients): 3.5 ± 1.4 | VAS score Bloating, After Antibiotic (SIBO [2]; nine CFS patients, neomycin 500 mg twice daily, 10-day course): 2.3 ± 1.7 | time to relapse of symptoms after initial response (SIBO [3]): 6-8 weeks | nausea, fatigue, bloating, gas distension and alteration in bowel habits (SIBO [3]; first treatment): complete resolution | neuropathies (SIBO [3]; first treatment): dramatic improvement and resolution | symptoms upon re-treatment (SIBO [3]; re-treatment 500 mg twice daily for 10 days): complete resolution of their symptoms | eradication of bacterial overgrowth (SIBO [3]; 500 mg twice daily for 10 days): at least partially eradicated
